Laboratory results published in US4401604A, “Process for preparing thiosulfenamide derivatives of N-phosphonomethylglycine triesters” (Monsanto Company, priority 1981, dated 1983).

Tests used:
Assay type in all cases: in vivo
Barnyardgrass [1] = assay: Post-emergence herbicidal activity, greenhouse; settings: Table I, 4 WAT
Source text: (§1) A good grade of top soil is placed in aluminum pans having holes in the bottom and compacted to a depth of 0.95 to 1.27 cm. from the top of the pan. A predetermined number of seeds of each of several dicotyledonous and monocotyledonous annual plant species and/or vegetative propagules for the perennial plant species are placed on the soil and pressed into the soil surface. The seeds and/or vegetative propagules are covered with soil and leveled. The pans are then placed on a sand bench in the greenhouse and watered from below as needed. After the plants reach the desired age (two to three weeks), each pan except for the control pans is removed individually to a spraying chamber and sprayed by means of an atomizer operating at a positive air pressure of approximately 1.46 kg/cm^2 absolute. The atomizer contains 6 ml. of a solution or suspension of the chemical. In that 6 ml., is an amount of a cyclohexanone emulsifying agent mixture to give a spray solution or suspension which contains about 0.4% by weight of the emulsifier. The spray solution or suspension contains a sufficient amount of the candidate chemical in order to give application rates corresponding to those set forth in the tables. The spray solution is prepared by taking an aliquot of a 1.0% by weight stock solution or suspension of the candidate chemical in an organic solvent such as acetone or tetrahydrofuran or in water. The emulsifying agent employed is a mixture comprising 35 weight percent butylamine dodecylbenzene sulfonate and 65 weight percent of a tall oil ethylene oxide condensate having about 11 moles of ethylene oxide per mole of tall oil. The pans are returned to the greenhouse and watered as before and the injury to the plants as compared to the control is observed at approximately two and four weeks as indicated in the tables under WAT and the results recorded. In some instances, the two-week observations are omitted.
(§2) The post-emergence herbicidal activity index used in Table I is as follows:
(§3) The plant species utilized in these tests are identified by letter in accordance with the following legend: […]

Canada Thistle [2] = assay: Post-emergence herbicidal activity, greenhouse; settings: Table I, 4 WAT
Source text: as §1, §2, §3

Cocklebur [3] = assay: Post-emergence herbicidal activity, greenhouse; settings: Table I, 4 WAT
Source text: as §1, §2, §3

Downy Brome [4] = assay: Post-emergence herbicidal activity, greenhouse; settings: Table I, 4 WAT
Source text: as §1, §2, §3

Johnsongrass [5] = assay: Post-emergence herbicidal activity, greenhouse; settings: Table I, 4 WAT
Source text: as §1, §2, §3

Lambsquarters [6] = assay: Post-emergence herbicidal activity, greenhouse; settings: Table I, 4 WAT
Source text: as §1, §2, §3

Morningglory [7] = assay: Post-emergence herbicidal activity, greenhouse; settings: Table I, 4 WAT
Source text: as §1, §2, §3

Quackgrass [8] = assay: Post-emergence herbicidal activity, greenhouse; settings: Table I, 4 WAT
Source text: as §1, §2, §3

Smartweed [9] = assay: Post-emergence herbicidal activity, greenhouse; settings: Table I, 4 WAT
Source text: as §1, §2, §3

Velvetleaf [10] = assay: Post-emergence herbicidal activity, greenhouse; settings: Table I, 4 WAT
Source text: as §1, §2, §3

Yellow Nutsedge [11] = assay: Post-emergence herbicidal activity, greenhouse; settings: Table I, 4 WAT
Source text: as §1, §2, §3

Barnyardgrass [12] = assay: Pre-emergent herbicidal activity; settings: Table III; 11.2 kg/h; 2 WAT
Source text: (§4) A good grade of top soil is placed in aluminum pans and compacted to a depth of 0.95 to 1.27 cm. from the top of each pan. A predetermined number of seeds or vegetative propagules of each of several plant species are placed on top of the soil in each pan and then pressed down. Herbicidal compositions prepared as in the previous example are applied by admixture with or incorporation in the top layer of soil.
(§5) In this method, the soil required to cover the seeds and propagules is weighed and admixed with a herbicidal composition containing a known amount of the active ingredient (compound of this invention). The pans are then filled with the admixture and leveled. Watering is carried out by permitting the soil in the pans to absorb moisture through apertures in the pan bottoms. The seed and propagule containing pans are placed on a wet sand bench and maintained for approximately two weeks under ordinary conditions of sunlight and watering. At the end of this period, the number of emerged plants of each species is noted and compared to an untreated control.
(§6) The pre-emergent herbicidal activity index used below is based upon average percent control of each species as follows:
(§7) Plant species in the table are identified by the same code letters used in the previous example.

Canada Thistle [13] = assay: Pre-emergent herbicidal activity; settings: Table III; 11.2 kg/h; 2 WAT
Source text: as §4, §5, §6, §7

Cocklebur [14] = assay: Pre-emergent herbicidal activity; settings: Table III; 11.2 kg/h; 2 WAT
Source text: as §4, §5, §6, §7

Downy Brome [15] = assay: Pre-emergent herbicidal activity; settings: Table III; 11.2 kg/h; 2 WAT
Source text: as §4, §5, §6, §7

Johnsongrass [16] = assay: Pre-emergent herbicidal activity; settings: Table III; 11.2 kg/h; 2 WAT
Source text: as §4, §5, §6, §7

Lambsquarters [17] = assay: Pre-emergent herbicidal activity; settings: Table III; 11.2 kg/h; 2 WAT
Source text: as §4, §5, §6, §7

Morningglory [18] = assay: Pre-emergent herbicidal activity; settings: Table III; 11.2 kg/h; 2 WAT
Source text: as §4, §5, §6, §7

Quackgrass [19] = assay: Pre-emergent herbicidal activity; settings: Table III; 11.2 kg/h; 2 WAT
Source text: as §4, §5, §6, §7

Smartweed [20] = assay: Pre-emergent herbicidal activity; settings: Table III; 11.2 kg/h; 2 WAT
Source text: as §4, §5, §6, §7

Velvetleaf [21] = assay: Pre-emergent herbicidal activity; settings: Table III; 11.2 kg/h; 2 WAT
Source text: as §4, §5, §6, §7

Yellow Nutsedge [22] = assay: Pre-emergent herbicidal activity; settings: Table III; 11.2 kg/h; 2 WAT
Source text: as §4, §5, §6, §7

O=C(CN(CP(=O)(Oc1ccccc1)Oc1ccccc1)SSC1CCCCC1)OCc1ccccc1 [III, Glycine, N-(cyclohexyldithio)-N-[(diphenoxyphosphinyl)methyl]-, phenylmethyl ester]
post-emergence herbicidal activity index (Barnyardgrass [1]; 5.6 kg/h): 2 (50-74% control)
post-emergence herbicidal activity index (Barnyardgrass [1]; 11.2 kg/h): 2 (50-74% control)
post-emergence herbicidal activity index (Canada Thistle [2]; 5.6 kg/h): 1 (25-49% control)
post-emergence herbicidal activity index (Canada Thistle [2]; 11.2 kg/h): 0 (0- 24% control)
post-emergence herbicidal activity index (Cocklebur [3]; 5.6 kg/h): 1 (25-49% control)
post-emergence herbicidal activity index (Cocklebur [3]; 11.2 kg/h): 2 (50-74% control)
post-emergence herbicidal activity index (Downy Brome [4]; 5.6 kg/h): 1 (25-49% control)
post-emergence herbicidal activity index (Downy Brome [4]; 11.2 kg/h): 1 (25-49% control)
post-emergence herbicidal activity index (Johnsongrass [5]; 5.6 kg/h): 1 (25-49% control)
post-emergence herbicidal activity index (Johnsongrass [5]; 11.2 kg/h): 1 (25-49% control)
post-emergence herbicidal activity index (Lambsquarters [6]; 5.6 kg/h): 2 (50-74% control)
post-emergence herbicidal activity index (Lambsquarters [6]; 11.2 kg/h): 2 (50-74% control)
post-emergence herbicidal activity index (Morningglory [7]; 5.6 kg/h): 1 (25-49% control)
post-emergence herbicidal activity index (Morningglory [7]; 11.2 kg/h): 2 (50-74% control)
post-emergence herbicidal activity index (Quackgrass [8]; 5.6 kg/h): 1 (25-49% control)
post-emergence herbicidal activity index (Quackgrass [8]; 11.2 kg/h): 2 (50-74% control)
post-emergence herbicidal activity index (Smartweed [9]; 5.6 kg/h): 2 (50-74% control)
post-emergence herbicidal activity index (Smartweed [9]; 11.2 kg/h): 1 (25-49% control)
post-emergence herbicidal activity index (Velvetleaf [10]; 5.6 kg/h): 0 (0- 24% control)
post-emergence herbicidal activity index (Velvetleaf [10]; 11.2 kg/h): 1 (25-49% control)
post-emergence herbicidal activity index (Yellow Nutsedge [11]; 5.6 kg/h): 0 (0- 24% control)
post-emergence herbicidal activity index (Yellow Nutsedge [11]; 11.2 kg/h): 0 (0- 24% control)
pre-emergent herbicidal activity index (Barnyardgrass [12]): 0 (0-24% control)
pre-emergent herbicidal activity index (Canada Thistle [13]): 1 (25-49% control)
pre-emergent herbicidal activity index (Cocklebur [14]): 0 (0-24% control)
pre-emergent herbicidal activity index (Downy Brome [15]): 0 (0-24% control)
pre-emergent herbicidal activity index (Johnsongrass [16]): 0 (0-24% control)
pre-emergent herbicidal activity index (Lambsquarters [17]): 0 (0-24% control)
pre-emergent herbicidal activity index (Morningglory [18]): 0 (0-24% control)
pre-emergent herbicidal activity index (Quackgrass [19]): 0 (0-24% control)
pre-emergent herbicidal activity index (Smartweed [20]): 0 (0-24% control)
pre-emergent herbicidal activity index (Velvetleaf [21]): 0 (0-24% control)
pre-emergent herbicidal activity index (Yellow Nutsedge [22]): 0 (0-24% control)
